The record followed here is US5064817A, “Phospholipase A2 inhibiting compositions and their use” (Yissum Research Development Company of Hebrew University of …, priority 1987, dated 1991).

Values joined by “and” are separate entries in the source; they are usually repeats but may differ in a detail not shown here. Identical values can stand only once.

For data set [1], the system named is human platelet aggregation. As to the kind of experiment: Inhibition of human platelet aggregation in platelet-rich plasma. It counts as cell-based. Particulars: human PRP. How it is done:
(§1) Platelet-rich plasma (PRP) was obtained from human donors by centrifugation. Platelet aggregation at 37° C. and TXB2 secretion were induced by the addition of an aggregating agent (inducer) as indicated in the table below. Platelet aggregation was determined by measurement of the suspension optical density in a double beam aggregometer. Results are expressed as % of the control aggregation obtained by the addition of the inducer in the absence of an inhibitor. TXB2, secretion to the extracellular medium, was determined by radioimmunoassay. When the test PLI was applied, the PRP was incubated with the inhibitor for 10 min at 37° C., prior to induction of aggregation.

Data set [2] relates to crude phospholipase A2 (extracted from human polymorphonuclear leukocytes). Briefly: Inhibition of phospholipase A2 from human PMN leukocytes (14C-oleate-labelled E. coli substrate). In kind it is biochemical. Particulars: 37°, 60 min, pH 7.0, 0.5 mmol/l CaCl2. As for the experimental part:
The reaction is stopped by extraction with modified Dole reagent. Free oleic acid is separated on a disposable silicic acid (Kieselgel G 100) column and the radioactivity is determined. Percent inhibition is calculated after subtracting a blank (assay mixture without enzyme).

Data set [3] concerns Prostaglandin (PGE2) production in mouse peritoneal macrophages. Briefly: Inhibition of PGE2 production in mouse peritoneal macrophages. It counts as cell-based. Particulars: 10^-5 M phorbol-myristate-acetate, 2 hours, repeated lines per PLI type. As for the experimental part: Peritoneal cells from NMRI mice were obtained by lavage with Dulbeccos MEM. The cells were washed and plated at 2×10^4 /well in Dulbeccos MEM with FCS in 96-well plates. After 2 hours (or overnight) incubation at 37°, the adherent macrophages were washed 3 times. The medium was replaced by Dulbeccos MEM with lactalbumin hydrolysate. Test compounds were suspended in water. One hour later, the macrophages were stimulated with 10^-5 M phorbol-myristate-acetate. Another 2 hours later, PGE2 and LTC4 were measured int he supernatants by radioimmunoassay. The results are expressed as IC50 of PGE2 - and LTC4 -production.

Data set [4] deals with Thromboxane (TXB2) secretion by human platelets. As to the kind of experiment: Inhibition of thromboxane (TXB2) secretion by human platelets. In kind it is cell-based. Particulars: human PRP. How it is done:
as §1

Data set [5] has as its system prostacyclin (6-keto-PGF1 α) production in cultured adrenal capillary endothelial cells. Briefly: Inhibition of prostacyclin production in endothelial cells. It counts as cell-based. Particulars: for % Inhibition of prostacyclin production: PLI 1 mg/ml + Bradykinin 1 μM; for 6-keto-PFG1α PROD.: PLI 1 mg/ml + Bradykinin 1 μM (Bradykinin alone 201.9 ± 21.6). How it is done: Method: Cultured adrenal capillary endothelial cells were stimulated to produce prostacyclin (6-keto-PGF1 α) by bradykinin in the absence and presence of CMS or HME. The prostacyclin, secreted to the culture medium was determined by radioimmunoassay.

The subject of data set [6] is PLA2-oedema (purified phospholipase A2 from porcine pancreas, subplantar). As to the kind of experiment: Inhibition of PLA2-oedema in rats (paw plethysmometry). Particulars: rat. In kind it is in vivo. How it is done:
By subplantar injection of 200 U PLA2 (ca. 0.3 mg purified phospholipase A2 from porcine pancreas, Boehringer Mannheim) in 100 μl physiological saline into the left hind paw of male or female rats (LEW/TIF, ca. 200 g body weight, 5 animals per group) a localized edema was induced and its intensity was determined plethysmometrically 3 and 5 hours later. Test compounds were suspended in 0.75% methylcellulose and administered i.p. (5 ml/kg) 1 hour prior to the PLA2 injection. The edema-inhibiting effect was expressed as percent inhibition in comparison to vehicle-treated controls.

Data set [7] deals with Phospholipase A2 (PLA2) activity in Rat Basophilic Leukemia (RBL) cells. As to the kind of experiment: Inhibition of PLA2 activity in RBL cells (C6-NBD-PC hydrolysis). It counts as cell-based. How it is done:
Cultured RBL cells were incubated with the fluorescent substrate of PLA2 (C6 -NBD-PC) as described by Yedgar et al. (1986) FEBS Letters, 200:165-168. After 1 hour of incubation, the cultures were subjected to lipid extraction and determination of C6 -NBD-PC hydrolysed as previously described.

The subject of data set [8] is Serotonin secretion in Rat Basophilic Leukemia (RBL) cells. As to the kind of experiment: Inhibition of serotonin secretion in RBL cells. In kind it is cell-based. Particulars: HMS 1.5 mg/ml, ionophore A23187 0.3 μM. How it is done: Cultured RBL were incubated with tritiated serotonin (10^7 DPM/ml/10^6 cell) for 2 hours, then washed. Serotinin secretion was activated in the absence or presence of HMS (1.5 mg/ml) by the addition of the ionophore A23187 (0.3 μM) for the desired time. The radioactive serotonin accumulated in the culture medium during the activation period was determined. In the absence of HMS, approximately 1.3 and 1.9 DPM×10^5 was excreted in 15 and 30 minutes, respectively, whereas in the presence of the HMS, only about 0.3 DPM×10^5 was secreted in each of these time periods.

Data set [9] concerns adjuvant arthritis (Freunds adjuvant paw swelling). As to the kind of experiment: Adjuvant arthritis model of inflammation. In kind it is in vivo, rat. Particulars: for gross signs of toxicity: 70 mg/kg subcutaneously, two week dosing period; for paw diameter (measured with calipers): arthritic animals, by day 14; for paw diameter (measured with calipers) / decrease in paw swelling, injected paw / decrease in paw swelling, noninjected paw: 70 mg/kg subcutaneously day 3 to day 14; for decrease in paw swelling, injected paw / decrease in paw swelling, noninjected paw: arthritic rats, day 14. How it is done:
Two compounds (CMS and HMS) were tested in the adjuvant arthritis model of inflammation. Paw swelling is induced by an injection of Freunds adjuvant into the right hind paw. Systemic inflammation spreads to the controlateral paw within 2 weeks. The compounds were administered subcutaneously from day 3 to day 14 at a dose of 70 mg/kg. […] CMS decreased noninjected paw swelling 51% (P≤0.005) and injected paw swelling 30% (P≤0.001). […] No drug treated group lost weight compared to the arthritic controls.

Setting [10] is: line (e), 1 × i.p., dose not given.
[11] abbreviates: 100 mg/kg i.p., 1 hour prior to PLA2.
The mark [12] stands for this setting: 1 × 20 mg/kg i.p., 1 hour prior to PLA2.
Setting [13] is: Epinephrine 0.8 μg/ml, PLI 1.5 mg/ml.

For the substance “Dextranhydrazide-dodecanedioic-phosphatidylserine [Dex-Ac-PS, reference compound]”, the “Aggregation (% of control)” value in [1] (ADP 2 μg/ml, PLI 3.0 mg/ml) is listed as 14 % of control; in data set [1] (Epinephrine 0.8 μg/ml, PLI 6.5 mg/ml), 19 % of control. Besides, the “Inhibition of PLA2 from human PMN, IC50” value in [2] turned out to be 720 µg/mL. Moreover, in data set [3], the “IC50 for PGE2 production” value is 300 µg/mL and 600 µg/mL.

Consider Hemaccellphosphatidylethanolamine [HME], for which the TXB2 secreted in data set [4] (ADP 2 μg/ml, PLI 0.70 mg/ml (without PLI 82 ± 4)) was determined as 14 ± 7 ng/mL; in data set [4] (Collagen 40 μg/ml, PLI 0.85 mg/ml (without PLI 42 ± 6)), 17 ± 7 ng/mL. The “Aggregation (% of control)” value is recorded as 6 % of control in [1] (ADP 2 μg/ml, PLI 0.70 mg/ml); 13 % of control in [1] (Collagen 40 μg/ml, PLI 0.85 mg/ml); 9 % of control in [1] (Epinephrine 0.8 μg/ml, PLI 0.75 mg/ml). In addition, in data set [5], the “% Inhibition of prostacyclin production” value is 82%. Further, in data set [5], the “6-keto-PFG1α PROD.” value was 36.4 ± 7.2 PG/10^-6 Cells. The “% Inhibition of PLA2-oedema, 3 hours” value is given as 0% in data set [6] (setting [10]); 27% in data set [6] (line (f), i.p., dose not given); 53% in data set [6] (line (g), i.p., dose not given). Moreover, the “% Inhibition of PLA2-oedema, 5 hours” value in data set [6] (setting [10]) is listed as 0%; in data set [6] (line (f), i.p., dose not given), 25%; in [6] (line (g), i.p., dose not given), 45%.

For the substance Hemaccellphosphatidylserine [HMS], the C6-NBD-PC hydrolysed in data set [7] (HMS 0.5 mg/ml (control 1.42 ± 0.19)) is recorded as 0.37 ± 0.04 nmole/mg cell protein-hour. In data set [7] (HMS 1.5 mg/ml (control 1.42 ± 0.19)), the C6-NBD-PC hydrolysed is 0.11 ± 0.07 nmole/mg cell protein-hour. For the same substance, the “Aggregation (% of control)” value in data set [1] (Epinephrine 0.8 μg/ml, PLI 1.2 mg/ml) is 2 % of control. Further, in data set [8] (15 minutes (without HMS approx. 1.3)), the “radioactive serotonin secreted to culture medium” value is recorded as “about 0.3 DPM×10^5”. In addition, in data set [8] (30 minutes (without HMS approx. 1.9)), the “radioactive serotonin secreted to culture medium” value was “about 0.3 DPM×10^5”. For the same substance, the “Inhibition of PLA2 from human PMN, IC50” value in data set [2] stood at 57 µg/mL. For the same substance, in [6] (setting [11]), the “% Inhibition of PLA2-oedema, 3 hours” value came out at 63% and the “% Inhibition of PLA2-oedema, 5 hours” value came to 80%. Besides, in data set [6] (setting [12]), the “% Inhibition of PLA2-oedema, 3 hours” value is reported as 36% and the “% Inhibition of PLA2-oedema, 5 hours” value stood at 62%. In addition, in data set [3], the “IC50 for PGE2 production” value was over 100 µg/mL. Also, in data set [9], the “gross signs of toxicity” value was “no gross signs of toxicity”; the “paw diameter (measured with calipers)” value is on record as “significantly decreased”; the “decrease in paw swelling, injected paw” value came to 19%; the “decrease in paw swelling, noninjected paw” value is reported as 43%.

Turning to “alginic acid phosphatidylethanolamine [ALE]”, the “Aggregation (% of control)” value in data set [1] (Epinephrine 0.8 μg/ml, PLI 0.7 mg/ml) is on record as 9 % of control.

Turning to alginic acid phosphatidylserine [ALS], the “Aggregation (% of control)” value in data set [1] (setting [13]) was 5 % of control.

For “carboxymethylcellulose phosphatidylethanolamine [CME]”, the “Aggregation (% of control)” value in data set [1] (setting [13]) was 0 % of control.

Take “carboxymethylcellulosephosphatidylserine [CMS]”: the “Aggregation (% of control)” value in data set [1] (setting [13]) was 0 % of control. In data set [2], the “Inhibition of PLA2 from human PMN, IC50” value was 40 µg/mL. Also, in [5], the “% Inhibition of prostacyclin production” value is given as 61% and the “6-keto-PFG1α PROD.” value is on record as 78.7 ± 6.8 PG/10^-6 Cells. Besides, in data set [6] (setting [11]), the “% Inhibition of PLA2-oedema, 3 hours” value is listed as 51% and the “% Inhibition of PLA2-oedema, 5 hours” value worked out at 54%. Also, in data set [6] (setting [12]), the “% Inhibition of PLA2-oedema, 3 hours” value was found to be 15% and the “% Inhibition of PLA2-oedema, 5 hours” value came out at 29%. In data set [3], the “IC50 for PGE2 production” value was 100 µg/mL and > 100 µg/mL. For the same substance, in data set [9], the “gross signs of toxicity” value is recorded as “no gross signs of toxicity”; the “paw diameter (measured with calipers)” value is “significantly decreased”; the “decrease in paw swelling, injected paw” value is 30%; the “decrease in paw swelling, noninjected paw” value came to 51%.
